From patent publication EP0137212A2, “Ointment bases and ointments” (OTSUKA PHARMACEUTICAL CO., LTD., priority 1983, dated 1985) come the findings set out here.

The subject of data set [1] is carrageenin-induced paw edema. Kind of data set: Inhibition of carrageenin-induced paw edema in rats. Conditions: 200 mg ointment (Ointment A / Ointment B) rubbed into right hind paw 1 and 2 hours before carrageenin. The class given is in vivo. How it is done:
After the ointment was applied to a rat's hind paw, carrageenin serving as a phlogogen was injected into the same hind paw, and the swelling caused by the phlogogen was measured. More specifically stated, the test was carried out as given below, using groups of 5 rats (weighing 175 g). First, the right hind paw of the rat was immersed in water, and the displacement was measured thereby giving the volume of hind paw. One and 2 hours before the injection of the phlogogen (carrageenin), 200 mg of the ointment was elaborately rubbed into the right hind paw of the rat, which was then wrapped in Saran Wrap (trademark) and covered with an elastic strip of adhesive plaster. Thereafter, 0.1 ml of a 1% solution of carrageenin was injected into the right hind paw, and the volume of the hind paw was hourly measured to determine the swelling (%) according to the following equation based on the volume thereof before the injection with the results shown in Fig. 1. [formula] wherein V0 is the volume of the right hind paw before the injection of carrageenin and V1 is the volume thereof after the injection of carrageenin.
(In general: Carrageenan injected into the paw causes an acute inflammation.)

A further data set in a line: Steroid Solubility Test. The class given is physicochemical. On the procedure:
This test was conducted to determine the maximum weight of Steroids A and B that could completely dissolve in 1 ml of various solvents at a temperature of 20°C.

≈ marks a conversion by molar mass, not a printed value. Like-named read-outs stand apart in the source and are kept apart here. Some results are limits rather than exact numbers.

As to `CCOC(=O)O[C@]1(C(=O)OCCl)CC[C@H]2[C@@H]3CCC4=CC(=O)C=C[C@]4(C)[C@H]3[C@@H](O)C[C@@]21C` [Steroid A, chloromethyl 17α-ethoxycarbonyloxy-11β-hydroxyandrosta-1,4-diene-3-one-17β-carboxylate], in data set [1], the “anti-inflammatory activity (swelling of hind paw, Fig. 1, in words)” value is on record as “exhibit an anti-inflammatory activity”. Moreover, the solubility was 1950 µg/mL (≈ 4.18 mM) in “Steroid Solubility Test” (organic solvent or mixture, solvent 1,3-Butanediol, 20°C, read-out: maximum weight that could completely dissolve in 1 ml of solvent); 357000 µg/mL (≈ 765 mM) in “Steroid Solubility Test” (organic solvent or mixture, solvent 1,3-Dimethyl-2-imidazolidinone, 20°C, read-out: maximum weight that could completely dissolve in 1 ml of solvent); > 25000 µg/mL in “Steroid Solubility Test” (organic solvent or mixture, solvent Benzyl alcohol, 20°C, read-out: maximum weight that could completely dissolve in 1 ml of solvent); 6850 µg/mL (≈ 14.7 mM) in “Steroid Solubility Test” (organic solvent or mixture, solvent Diethyl sebacate, 20°C, read-out: maximum weight that could completely dissolve in 1 ml of solvent); 13300 µg/mL (≈ 28.5 mM) in the data set “Steroid Solubility Test” (organic solvent or mixture, solvent Polyethylene glycol 400, 20°C, read-out: maximum weight that could completely dissolve in 1 ml of solvent); 2700 µg/mL (≈ 5.78 mM) in “Steroid Solubility Test” (organic solvent or mixture, solvent Propylene glycol, 20°C, read-out: maximum weight that could completely dissolve in 1 ml of solvent).
For `CCOC(=O)O[C@]1(C(=O)OCCl)[C@H](C)C[C@H]2[C@@H]3CCC4=CC(=O)C=C[C@]4(C)[C@@]3(F)[C@@H](O)C[C@@]21C` [Steroid B, chloromethyl 17a-ethoxycarbonyloxy-9a-fluoro-11β-hydroxy-16α-methylandrosta-1,4-diene-3-one-17β-carboxylate], the “anti-inflammatory activity (swelling of hind paw, Fig. 1, in words)” value in data set [1] was “exhibit an anti-inflammatory activity”. Besides, the solubility in “Steroid Solubility Test” (1,3-butanediol, organic solvent or mixture) came to 50 µg/mL (≈ 0.1 mM); in the data set “Steroid Solubility Test” (1,3-dimethyl-2-imidazolidinone, organic solvent or mixture), 52100 µg/mL (≈ 104 mM); in “Steroid Solubility Test” (benzyl alcohol, organic solvent or mixture), 920 µg/mL (≈ 1.84 mM); in the data set “Steroid Solubility Test” (diethyl sebacate, organic solvent or mixture) it was 280 µg/mL (≈ 0.561 mM); in “Steroid Solubility Test” (polyethylene glycol 400, organic solvent or mixture) it was 450 µg/mL (≈ 0.902 mM); in the data set “Steroid Solubility Test” (propylene glycol, organic solvent or mixture), 100 µg/mL (≈ 0.2 mM).
